Test results reported in ChEMBL document CHEMBL1201862, “PubChem BioAssay data set” (2004).
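Following 48 hours of exposure in 96-well plates, responses at five concentrations were used to interpolate endpoints linearly. Here, GI50 denotes the concentration required for 50% inhibition of growth.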 Activity calls are given as the source filed them. Rule as the data show it: active = GI50 up to about 1.1 µM and inactive = higher.

What was measured:
Assay in all cases: growth of human tumour cells (NCI), 48 h
[1] = system: 786-0
[2] = system: A498
[3] = system: A549
[4] = system: ACHN
[5] = system: BT-549
[6] = system: CAKI-1
[7] = system: CCRF-CEM
[8] = system: COLO 205
[9] = system: DU-145
[10] = system: EKVX
[11] = system: HCC 2998
[12] = system: HCT-116
[13] = system: HCT-15
[14] = system: HL-60
[15] = system: HOP-62
[16] = system: HT-29
[17] = system: Hs-578T
[18] = system: IGROV-1
[19] = system: K562
[20] = system: KM12
[21] = system: LOX IMVI
[22] = system: M14
[23] = system: MCF7
[24] = system: MDA-MB-231
[25] = system: MDA-MB-435
[26] = system: MDA-N
[27] = system: MOLT-4
[28] = system: Malme-3M
[29] = system: NCI-H226
[30] = system: NCI-H23
[31] = system: NCI-H460
[32] = system: NCI-H522
[33] = system: NCI/ADR-RES
[34] = system: OVCAR-3
[35] = system: OVCAR-4
[36] = system: OVCAR-5
[37] = system: OVCAR-8
[38] = system: PC-3
[39] = system: RPMI-8226
[40] = system: SF-268
[41] = system: SF-295
[42] = system: SF-539
[43] = system: SK-MEL-28
[44] = system: SK-MEL-2
[45] = system: SK-MEL-5
[46] = system: SK-OV-3
[47] = system: SN12C
[48] = system: SNB-19
[49] = system: SNB-75
[50] = system: SW-620
[51] = system: T47D
[52] = system: TK-10
[53] = system: U-251
[54] = system: UACC-257
[55] = system: UACC-62
[56] = system: UO-31
[57] = system: HOP-92
[58] = system: RXF 393
[59] = system: SR

Compound: COc1ccccc1C1SCC(=O)N1c1ccc(-c2ccc(-n3c(-c4ccccc4)nc4ccccc4c3=O)cc2)cc1 (stereo not drawn)
- GI50 [1]: > 100 µM (inactive)
- GI50 [2]: > 100 µM (inactive)
- GI50 [3]: > 100 µM (inactive)
- GI50 [4]: > 100 µM (inactive)
- GI50 [5]: > 100 µM (inactive)
- GI50 [6]: > 100 µM (inactive)
- GI50 [7]: > 100 µM (inactive)
- GI50 [8]: > 100 µM (inactive)
- GI50 [9]: > 100 µM (inactive)
- GI50 [10]: > 100 µM (inactive)
- GI50 [11]: > 100 µM (inactive)
- GI50 [12]: > 100 µM (inactive)
- GI50 [13]: > 100 µM
- GI50 [14]: > 100 µM (inactive)
- GI50 [15]: > 100 µM (inactive)
- GI50 [16]: > 100 µM (inactive)
- GI50 [17]: > 100 µM (inactive)
- GI50 [18]: > 100 µM (inactive)
- GI50 [19]: > 100 µM (inactive)
- GI50 [20]: > 100 µM (inactive)
- GI50 [21]: > 100 µM (inactive)
- GI50 [22]: > 100 µM (inactive)
- GI50 [23]: > 100 µM (inactive)
- GI50 [24]: > 100 µM (inactive)
- GI50 [25]: > 100 µM (inactive)
- GI50 [26]: > 100 µM (inactive)
- GI50 [27]: > 100 µM (inactive)
- GI50 [28]: > 100 µM (inactive)
- GI50 [29]: > 100 µM (inactive)
- GI50 [30]: > 100 µM (inactive)
- GI50 [31]: > 100 µM (inactive)
- GI50 [32]: > 100 µM (inactive)
- GI50 [33]: > 100 µM (inactive)
- GI50 [34]: > 100 µM (inactive)
- GI50 [35]: > 10 µM (inactive)
- GI50 [36]: > 100 µM (inactive)
- GI50 [37]: > 100 µM (inactive)
- GI50 [38]: > 100 µM (inactive)
- GI50 [39]: > 100 µM (inactive)
- GI50 [40]: > 100 µM (inactive)
- GI50 [41]: > 100 µM (inactive)
- GI50 [42]: 31 µM (inactive)
- GI50 [43]: > 100 µM (inactive)
- GI50 [44]: > 100 µM (inactive)
- GI50 [45]: > 100 µM (inactive)
- GI50 [46]: > 100 µM (inactive)
- GI50 [47]: > 100 µM (inactive)
- GI50 [48]: > 100 µM (inactive)
- GI50 [49]: > 100 µM (inactive)
- GI50 [50]: > 100 µM (inactive)
- GI50 [51]: 91 µM (inactive)
- GI50 [52]: > 100 µM (inactive)
- GI50 [53]: > 100 µM (inactive)
- GI50 [54]: > 100 µM (inactive)
- GI50 [55]: 84.3 µM (inactive)
- GI50 [56]: 29.9 µM (inactive)

Compound: Brc1ccc(/N=N/N2CCCC2)cc1
- GI50 [1]: > 100 µM (inactive)
- GI50 [2]: 41.6 µM (inactive)
- GI50 [3]: 74.1 µM (inactive)
- GI50 [4]: 71.6 µM (inactive)
- GI50 [5]: 44.6 µM (inactive)
- GI50 [6]: 27.7 µM (inactive)
- GI50 [7]: 42 µM (inactive)
- GI50 [8]: > 100 µM (inactive)
- GI50 [9]: 49.7 µM (inactive)
- GI50 [10]: 66.7 µM (inactive)
- GI50 [11]: 40.6 µM (inactive)
- GI50 [12]: 58.6 µM (inactive)
- GI50 [13]: 50.7 µM
- GI50 [14]: 38.8 µM (inactive)
- GI50 [15]: > 100 µM (inactive)
- GI50 [57]: 27.2 µM (inactive)
- GI50 [16]: > 100 µM (inactive)
- GI50 [17]: > 100 µM (inactive)
- GI50 [18]: 34.8 µM (inactive)
- GI50 [19]: 60 µM (inactive)
- GI50 [20]: 70.3 µM (inactive)
- GI50 [21]: 40.4 µM (inactive)
- GI50 [22]: > 100 µM (inactive)
- GI50 [23]: 65.8 µM (inactive)
- GI50 [24]: > 100 µM (inactive)
- GI50 [25]: 48.1 µM (inactive)
- GI50 [26]: 64.9 µM (inactive)
- GI50 [27]: 28.6 µM (inactive)
- GI50 [28]: > 100 µM (inactive)
- GI50 [29]: > 100 µM (inactive)
- GI50 [30]: 45.2 µM (inactive)
- GI50 [31]: 48.2 µM (inactive)
- GI50 [32]: 27.4 µM (inactive)
- GI50 [34]: 81.5 µM (inactive)
- GI50 [35]: > 100 µM (inactive)
- GI50 [36]: > 100 µM (inactive)
- GI50 [38]: 31.8 µM (inactive)
- GI50 [39]: 51.1 µM (inactive)
- GI50 [58]: 81.7 µM (inactive)
- GI50 [40]: 95.1 µM (inactive)
- GI50 [41]: 77.1 µM (inactive)
- GI50 [42]: > 100 µM (inactive)
- GI50 [43]: > 100 µM (inactive)
- GI50 [44]: 57.1 µM (inactive)
- GI50 [45]: 27.1 µM (inactive)
- GI50 [46]: > 100 µM (inactive)
- GI50 [47]: 59 µM (inactive)
- GI50 [48]: > 100 µM (inactive)
- GI50 [59]: 34.6 µM (inactive)
- GI50 [50]: > 100 µM (inactive)
- GI50 [51]: 14.4 µM (inactive)
- GI50 [52]: 82.4 µM (inactive)
- GI50 [53]: 89.1 µM (inactive)
- GI50 [54]: 93.8 µM (inactive)
- GI50 [55]: > 100 µM (inactive)
- GI50 [56]: 32.4 µM (inactive)

Compound: CCOC(=O)C(CCSC)(CCSC)C(=O)OCC
- GI50 [1]: > 100 µM (inactive)
- GI50 [2]: > 100 µM (inactive)
- GI50 [3]: > 100 µM (inactive)
- GI50 [4]: > 100 µM (inactive)
- GI50 [5]: > 100 µM (inactive)
- GI50 [6]: > 100 µM (inactive)
- GI50 [7]: > 100 µM (inactive)
- GI50 [8]: > 100 µM (inactive)
- GI50 [9]: > 100 µM (inactive)
- GI50 [10]: > 100 µM (inactive)
- GI50 [11]: > 100 µM (inactive)
- GI50 [12]: > 100 µM (inactive)
- GI50 [13]: > 100 µM
- GI50 [15]: > 100 µM (inactive)
- GI50 [16]: > 100 µM (inactive)
- GI50 [17]: > 100 µM (inactive)
- GI50 [18]: > 100 µM (inactive)
- GI50 [19]: > 100 µM (inactive)
- GI50 [20]: > 100 µM (inactive)
- GI50 [21]: > 100 µM (inactive)
- GI50 [22]: > 100 µM (inactive)
- GI50 [23]: > 100 µM (inactive)
- GI50 [24]: > 100 µM (inactive)
- GI50 [25]: > 100 µM (inactive)
- GI50 [26]: > 100 µM (inactive)
- GI50 [27]: > 100 µM (inactive)
- GI50 [28]: > 100 µM (inactive)
- GI50 [29]: > 100 µM (inactive)
- GI50 [30]: > 100 µM (inactive)
- GI50 [31]: > 100 µM (inactive)
- GI50 [32]: > 100 µM (inactive)
- GI50 [33]: > 100 µM (inactive)
- GI50 [34]: > 100 µM (inactive)
- GI50 [35]: > 100 µM (inactive)
- GI50 [36]: > 100 µM (inactive)
- GI50 [37]: > 100 µM (inactive)
- GI50 [38]: > 100 µM (inactive)
- GI50 [39]: > 100 µM (inactive)
- GI50 [58]: > 100 µM (inactive)
- GI50 [40]: > 100 µM (inactive)
- GI50 [41]: > 100 µM (inactive)
- GI50 [42]: > 100 µM (inactive)
- GI50 [43]: > 100 µM (inactive)
- GI50 [44]: > 100 µM (inactive)
- GI50 [45]: > 100 µM (inactive)
- GI50 [46]: 27.7 µM (inactive)
- GI50 [47]: > 100 µM (inactive)
- GI50 [48]: > 100 µM (inactive)
- GI50 [49]: > 100 µM (inactive)
- GI50 [50]: > 100 µM (inactive)
- GI50 [51]: > 100 µM (inactive)
- GI50 [52]: > 100 µM (inactive)
- GI50 [53]: > 100 µM (inactive)
- GI50 [54]: > 100 µM (inactive)
- GI50 [55]: 18.7 µM (inactive)
- GI50 [56]: > 100 µM (inactive)
